From PMC12106329, “Chronic alcohol intake disrupts cytochrome P450 enzyme activity in alcoholic fatty liver disease: insights into metabolic alterations and therapeutic targets” (Frontiers in Chemistry, 2025)
Values joined by “and” are separate entries in the source; they are usually repeats but may differ in a detail not shown here. Equal values may be shown once. Read-outs that look alike come from different tables or passages of the source.

Assays:
CYP3A1 [1] = conditions: AM group, oral ethanol 12 weeks; compared to NC and SC groups
Experimental: (§1) Sixty healthy male Sprague-Dawley rats (SD-2024-RAT-045, Beijing Vital River Laboratory Animal Technology Co., Ltd., Beijing, China) weighing 200–250 g were selected. The animals were housed under a 12-h light/dark cycle at a constant laboratory temperature of 22°C ± 2°C and relative humidity of 50% ± 10%, with access to ample food and water. Sixty rats were randomly assigned to four groups (fifteen rats per group): the normal control group (NC group), the sucrose solution group (SC group), the ethanol intake group (AM group), and the ethanol intake group with simultaneous overexpression of CYP2C11 and CYP2B6 (AM + oe-CYP2C11&CYP2B6 group). The NC group received an equal volume of normal saline daily via oral gavage. The SC group was given an 18% sucrose solution (w/v) and an equal volume of normal saline instead of ethanol. The AM group started with a 5% ethanol concentration, increasing by 5% weekly to 40% while maintaining a constant 18% sucrose concentration (v/v). The plasmid vector for gene overexpression, pCMV6-AC-GFP (LM-2069, LMAI Bio, Shanghai, China), was used to construct CYP2C11 and CYP2B6 plasmids, which were developed by Sangon Biotech (Shanghai, China). After constructing the AM rat model, overexpression plasmids were transfected into lentiviruses via tail vein injection ([Liu et al., 2020]). The lentivirus injections (5 × 10^7 IU/rat) were administered twice, with a minimum interval of 2 days between injections, starting on day 7 after the initiation of sucrose treatment ([Ma et al., 2020]).
(§2) The daily ethanol and sucrose feeding volumes were weight-adjusted for the rats, approximately 20 mL per kilogram of body weight, and continued for 12 weeks. Weekly monitoring of rat weight, observation and recording of appetite, general health status including activity level, fur condition, and behavioral changes were documented. Daily feeding amounts were meticulously recorded to accurately adjust ethanol and sucrose solution volumes. After 12 weeks, the rats were euthanized by cervical dislocation following unconsciousness induced by carbon dioxide (CO₂) inhalation. Liver tissues were dissected and stored at −80°C for subsequent histological and molecular biology analyses. Blood samples were collected, and serum was separated by centrifugation (3,000 rpm, 4°C, 15 min) and stored at −80°C for future use.
(§3) Rat liver microsomes were isolated using differential centrifugation. Each sample was mixed with 50 mM Tris-HCl buffer, homogenized, and then centrifuged at 10,000 × g for 30 min. The supernatant was centrifuged at 100,000 × g for 1 h using a high-speed centrifuge (Himac CP100WX, Hitachi, Japan).
(§4) The activities of CYP1A2, CYP2B6, CYP2C19, CYP2C11, CYP2E1, CYP2D6, and CYP3A1 were quantitatively determined using specific labeled substrates and an NADPH generation system containing 100 mM potassium phosphate buffer, 1 mM NADP (N1630, Sigma, United States), 10 mmol/L G-6-P (G7877, Sigma, United States), 0.1 U/mL G-6-PDH (G8529, Sigma, United States), and 5 mM MgCl2. The NADPH generation system was added to microsomes (total protein concentration of 1 mg/mL) with a total volume of 190 μL. Each reaction system was supplemented with 10 μL of substrate.

CYP2D6 [2] = conditions: AM group, oral ethanol 12 weeks; compared to NC and SC groups
Experimental: as §1, §2, §3, §4

CYP1A2 [3] = conditions: AM group, oral ethanol 12 weeks; compared to NC and SC groups
Experimental: as §1, §2, §3, §4

CYP2C11 [4] = conditions: AM group, oral ethanol 12 weeks
Experimental: as §1, §2, §3, §4

CYP2E1 [5] = conditions: AM group, oral ethanol 12 weeks; compared to NC and SC groups
Experimental: as §1, §2, §3, §4

CYP2B6 [6] = conditions: AM group, oral ethanol 12 weeks
Experimental: as §1, §2, §3, §4

CYP3A1 mRNA = conditions: AM group, oral ethanol 12 weeks; compared to NC and SC groups
Experimental: as §1, §2
(§5) Total RNA was extracted from rat liver tissue using TRIzol reagent (15596026, Invitrogen, United States). cDNA was synthesized using the cDNA synthesis kit (RR036A, Takara, Japan). Specific gene expression was detected by combining the PCR master mix (206143, Qiagen, United States) with the Pikoreal 96 real-time PCR system (QPCR-96X, Thermo Scientific, United States). Quantitative PCR analysis was performed for CYP450 enzyme-related genes with the endogenous gene β-actin as a reference, and the relative mRNA expression levels were quantified by calculating the 2^−ΔΔCt values. All experiments were repeated three times.

CYP1A2 mRNA = conditions: AM group, oral ethanol 12 weeks; compared to NC and SC groups
Experimental: as §1, §2, §5

CYP2B6 mRNA = conditions: AM group, oral ethanol 12 weeks; compared to NC and SC groups
Experimental: as §1, §2, §5

CYP2E1 mRNA = conditions: AM group, oral ethanol 12 weeks; compared to NC and SC groups
Experimental: as §1, §2, §5

CYP2D6 mRNA = conditions: AM group, oral ethanol 12 weeks; compared to NC and SC groups
Experimental: as §1, §2, §5

CYP2C11 mRNA = conditions: AM group, oral ethanol 12 weeks; compared to NC and SC groups
Experimental: as §1, §2, §5

rat liver = conditions: AM group: oral ethanol 5% rising 5% weekly to 40% in 18% sucrose, about 20 mL/kg daily, 12 weeks; vs NC and SC groups
Experimental: as §1, with “The plasmid vector for gene overexpression, pCMV6-AC-GFP (LM-2069, LMAI Bio, Shanghai, China), was used to construct CYP2C11 and CYP2B6 plasmids, which were developed by Sangon Biotech (Shanghai, China). After constructing the AM rat model, overexpression plasmids were transfected into lentiviruses via tail vein injection ([Liu et al., 2020]). The lentivirus injections (5 × 10^7 IU/rat) were administered twice, with a minimum interval of 2 days between injections, starting on day 7 after the initiation of sucrose treatment ([Ma et al., 2020]).” left out
The daily ethanol and sucrose feeding volumes were weight-adjusted for the rats, approximately 20 mL per kilogram of body weight, and continued for 12 weeks. […] Daily feeding amounts were meticulously recorded to accurately adjust ethanol and sucrose solution volumes. […]

CYP3A1 [7] = conditions: AM group, oral ethanol 12 weeks; compared to NC and SC groups; remark: listed apart in the source
Experimental: as §1, §2
(§6) Liver samples were lysed using RIPA lysis buffer (P0013B, Beyotime, China). The total protein concentration was evaluated using the BCA protein assay kit (AR0146, Doctor’s Scientific Inc., China). SDS-PAGE was employed to separate total proteins, followed by protein transfer onto pre-wetted PVDF membranes with methanol (IPVH00010, Millipore Corp, United States). Non-specific protein blocking was carried out at room temperature for 3 h using TBST solution (BL315B, Boist, China) containing 5% milk. The target proteins were probed with primary antibodies overnight on […], followed by three washes with TBST/Tween 20 (0.075%) for 15 min each and subsequent incubation with labeled secondary antibodies for 1 h before washing. Protein visualization was performed using the Millipore Immobilon Western Chemiluminescent HRP substrate. The primary antibodies used in the experiments were polyclonal rabbit anti-human CYP450CYP1A2, 2B6, 2C11, 2C19, 2E1, 2D6, 3A1 (bs-20720R, Bioss, China) at a 1:300 dilution. The secondary antibodies, goat anti-mouse or anti-rabbit horseradish peroxidase conjugates, were diluted at 1:10,000 in TBST containing 5% milk. β-actin served as the loading control. The experiments were repeated three times.

CYP2C19 = conditions: AM group, oral ethanol 12 weeks
Experimental: as §1, §2, §6

CYP2D6 [8] = conditions: AM group, oral ethanol 12 weeks
Experimental: as §1, §2, §6

CYP1A2 [9] = conditions: AM group, oral ethanol 12 weeks
Experimental: as §1, §2, §6

CYP2C11 [10] = conditions: AM group, oral ethanol 12 weeks; remark: listed apart in the source
Experimental: as §1, §2, §6

ALDH2 = conditions: AM group, oral ethanol 12 weeks
Experimental: as §1, §2, §6

P-gp = conditions: AM group, oral ethanol 12 weeks
Experimental: as §1, §2, §6

CYP2E1 [11] = conditions: AM group, oral ethanol 12 weeks
Experimental: as §1, §2, §6

CYP2B6 [12] = conditions: AM group, oral ethanol 12 weeks; remark: listed apart in the source
Experimental: as §1, §2, §6

[13] = AM group, oral ethanol 12 weeks; vs NC and SC groups
Experimental: as §1, §2
Serum-related indicators were measured using commercial assay kits (BioSino Biotechnology and Science Inc., Beijing, China) following the manufacturer’s protocols. Specifically, serum samples, substrates, and buffer solutions were prepared according to the kit instructions. The reaction mixture was incubated at 37°C for 20 min, and absorbance was measured at 340 nm to record changes. Concentrations were calculated based on a standard curve ([Li et al., 2018]).

ROS = conditions: AM group, oral ethanol 12 weeks; vs NC and SC groups
Experimental: Reactive oxygen species (ROS) levels were detected using the fluorescent dye 2′,7′-dichlorodihydrofluorescein diacetate (DCF) (HY-D0940, Abcam, United Kingdom). […] Endothelial cells (2 × 10^4 cells) were seeded on coverslips in six-well plates and cultured overnight. The cells were treated with H2O2 (200 μM) the next day for 24 h. After treatment, the coverslips were washed with ice-cold Hank’s Balanced Salt Solution (HBSS) (H8264, Sigma Aldrich, Shanghai, China) and incubated with 100 μM DCFDA at 37°C for 30 min. After washing, the coverslips were mounted onto slides and imaged using a multiphoton confocal microscope (A1R, Nikon, United States) with a ×100 objective. Images were analyzed using Nikon Imaging Software NIS-Element.

[14] = for AUC0-∞ / Cmax / T1/2 / T1/2 el / Tmax / MRT / AUC0-L∞: oral, serum, final dosing after 12 weeks, mean; for AUC0-L∞: time zero to last measurable concentration
Experimental: Rats were administered orally with the same doses of normal saline and ethanol in the NC, SC, and AM groups, following the same method. After 12 weeks, blood samples were collected from the rats at specified time points (0.5, 1, 2, 4, 6, 8, and 12 h post-dosing) during the final dosing. The blood samples were centrifuged to separate serum and then stored at −80°C for further use.
Utilizing liquid chromatography-mass spectrometry (LC-MS) technology, the concentrations of ethanol and its metabolites in serum samples were analyzed. Analyze the pharmacokinetic parameters of the drug, such as the maximum plasma concentration (Cmax), the mean residence time (MRT) of ethanol in the body, and the bioavailability of ethanol. Data processing was conducted using specialized software XCMS, involving peak identification, integration, and normalization. Multivariate statistical analyses were performed on metabolite data to reveal metabolic differences between groups, such as principal component analysis (PCA) and orthogonal partial least squares discriminant analysis (OPLS-DA). Metabolites were annotated and compared with known databases (HMDB, METLIN) to confirm their identities. Differences in pharmacokinetic parameters among the NC, SC, and AM groups were compared to evaluate the effects of alcohol exposure and CYP450 enzymes, aiming to identify metabolite variances.

[15] = liver, β-actin loading control, single replicates
[16] = SC group (sucrose solution) rats
[17] = rat serum after long-term alcohol exposure

## CCO [ethanol]
CYP3A1 [1]
  CYP3A1 enzyme activity in liver microsomes: significantly increased
CYP2D6 [2]
  CYP2D6 enzyme activity in liver microsomes: significantly increased
CYP1A2 [3]
  CYP1A2 enzyme activity in liver microsomes: significantly increased
CYP2C11 [4]
  CYP2C11 enzyme activity in liver microsomes: notable decreases
CYP2E1 [5]
  CYP2E1 enzyme activity in liver microsomes: significantly increased
CYP2B6 [6]
  CYP2B6 enzyme activity in liver microsomes: notable decreases
CYP3A1 mRNA
  CYP3A1 mRNA level in liver: significantly higher
CYP1A2 mRNA
  CYP1A2 mRNA level in liver: significantly higher
CYP2B6 mRNA
  CYP2B6 mRNA level in liver: significantly lower
CYP2E1 mRNA
  CYP2E1 mRNA level in liver: significantly higher
CYP2D6 mRNA
  CYP2D6 mRNA level in liver: significantly higher
CYP2C11 mRNA
  CYP2C11 mRNA level in liver: significantly lower
Rat liver
  liver histology (H&E): macrovesicular steatosis
CYP3A1 [7]
  CYP3A1 protein expression, change: higher
CYP2C19; across all groups
  CYP2C19 protein expression, change: no significant difference
CYP2C19; [15]
  CYP2C19 Relative protein expression: 1.22 and 1.39 and 1.27
CYP2D6 [8]; compared to NC and SC groups
  CYP2D6 protein expression, change: higher
CYP2D6 [8]; [15]
  CYP2D6 Relative protein expression: 3.37 and 3.45 and 2.83
CYP1A2 [9]; compared to NC and SC groups
  CYP1A2 protein expression, change: higher
CYP1A2 [9]; [15]
  CYPIA2 Relative protein expression: 1.50 and 1.52 and 1.65
CYP2C11 [10]; compared to NC and SC groups
  CYP2C11 protein level, change: significantly lower
CYP2C11 [10]; [15]
  CYP2C11 Relative protein expression: 0.76 and 0.74 and 0.78
ALDH2; compared with NC and SC groups
  ALDH2 protein level, change: increased
ALDH2; [15]
  ALDH2 Relative protein expression: 1.34 and 1.48 and 1.49
P-gp
  P-gp protein expression, change: significant increase
P-gp; [15]
  P-gp Relative protein expression: 1.61 and 1.33 and 1.52
CYP2E1 [11]; compared to NC and SC groups
  CYP2E1 protein expression, change: higher
CYP2E1 [11]; [15]
  CYP2E1 Relative protein expression: 1.88 and 2.01 and 1.78
CYP2B6 [12]; compared to NC and SC groups
  CYP2B6 protein level, change: significantly lower
CYP2B6 [12]; [15]
  CYP2B6 Relative protein expression: 0.28 and 0.3 and 0.29
[13]
  MDA level: significantly increased
  SOD level: significantly decreased
  serum ALT level: significantly increased
  serum AST level: significantly increased
  total cholesterol (TC) level: significantly increased
  triglyceride (TG) level: significantly increased
ROS
  intracellular ROS level: significant increase
[14]; AM group (alcohol intake) rats
  AUC0-∞: 29120 ng·h/mL
  Cmax: 2375 ng/mL
  T1/2: 2.88 h
  T1/2 el: 17.04 h
  Tmax: 4.76 h
  AUC0-L∞: 27820 ng·h/mL
[14]; AM group (alcohol intake) rats, p < 0.01 vs NC
  MRT: 24.48 h
[14]; NC group (normal control) rats
  AUC0-∞: 22400 ng·h/mL
  Cmax: 1900 ng/mL
  MRT: 20.4 h
  T1/2: 2.4 h
  T1/2 el: 14.2 h
  Tmax: 4.75 h
  AUC0-L∞: 21400 ng·h/mL
[14]; NC, SC and AM groups, p > 0.05
  Tmax, difference among the groups: no significant difference
[14]; [16]
  AUC0-∞: 21300 ng·h/mL
  Cmax: 1890 ng/mL
  MRT: 19.8 h
  T1/2: 2.35 h
  T1/2 el: 13.5 h
  Tmax: 4.68 h
[14]; [17]
  AUC0-L∞, AM group vs other groups: significantly increased
  AUC0-∞, AM group vs other groups: significantly increased
[14]; rat, after long-term alcohol exposure
  clearance, AM group vs other groups: lower
